Measured values published in ChEMBL document CHEMBL1146281, “Synthesis and evaluation of peptidic maleimides as transglutaminase inhibitors” (Bioorg Med Chem Lett, 2007).

Species on record: Cavia porcellus
Experiment: Ratio of Kinactivation to KI of guinea pig recombinant liver TGase expressed in Escherichia coli

Structure (SMILES)	Ratio [mM⁻¹ min⁻¹]
O=C(N[C@@H](CCCN1C(=O)C=CC1=O)C(=O)OCc1ccccc1)OCc1ccccc1	6.26
COC(=O)CNC(=O)[C@H](CCCCN1C(=O)C=CC1=O)NC(=O)OCc1ccccc1	0.83
COC(=O)CNC(=O)[C@H](CCN1C(=O)C=CC1=O)NC(=O)OCc1ccccc1	0.28
COC(=O)CNC(=O)[C@H](CCCN1C(=O)C=CC1=O)NC(=O)OCc1ccccc1	0.43
O=C(N[C@@H](CCCCN1C(=O)C=CC1=O)C(=O)OCc1ccccc1)OCc1ccccc1	17.1
O=C(N[C@@H](CCN1C(=O)C=CC1=O)C(=O)OCc1ccccc1)OCc1ccccc1	0.67
